{"source": "patent US20100196907A1", "about": "“MARKERS TO PREDICT AND MONITOR RESPONSE TO AURORA KINASE B INHIBITOR THERAPY” (ABBOTT LABORATORIES, priority 2009, published 2010)", "key": {"cell line panel": {"test_system": "cell line panel", "test": "7-day colony formation or viability, cell line panel", "format": "cell-based, human", "description": "(§1) SW620^ABCB1/3 and the respective parental cell lines were washed and 500 cells/well were seeded into six-well plates in drug-free medium. Then, 24 hours later, compounds were diluted in DMEM or RPMI, added to the cells, which were cultured at 37° C. for 7-10 days. Cells were then fixed and stained with 0.2% crystal violet to visualize and count colonies."}, "SW620^ABCB1/3 cells [1]": {"test_system": "SW620^ABCB1/3 cells", "test": "histone H3 phosphorylation immunoblot, SW620^ABCB1/3", "format": "cell-based, human", "description": "(§2) SW620 and SW620^ABCB1/3 cells were washed and allowed to grow in drug-free medium overnight. […] The lysates were then probe-sonicated for 10 seconds then clarified by centrifugation at 15,000 g for 15 minutes at 4° C. After treatment with SDS-sample buffer, protein extracts were resolved on NuPAGE Bis-Tris 4-12% gels (Invitrogen (Carlsbad, Calif.)). Samples were electrotransferred to PVDF membranes (Invitrogen (Carlsbad, Calif.)), incubated with primary antibody overnight, and developed using Pierce Dura-Signal chemiluminescence reagents (Pierce, Rockford, Ill.), or Odyssey infrared imaging system from LI-COR Biosciences (Lincoln, Nebr.)."}, "[2]": {"details": "human plasma; cited from earlier work"}, "bone marrow": {"test_system": "bone marrow", "details": "cited from earlier work"}, "SW620^ABCB1/3": {"test_system": "SW620^ABCB1/3", "test": "colony formation, SW620^ABCB1/3", "format": "cell-based, human", "description": "as §1"}, "HCT-15": {"test_system": "HCT-15", "test": "colony formation, HCT-15", "format": "cell-based, human"}, "AsPC1": {"test_system": "AsPC1", "test": "colony formation, AsPC1", "format": "cell-based, human"}, "[3]": {"test_system": "HCT-15 colon carcinoma xenografts", "test": "xenograft growth, HCT-15", "format": "in vivo, mice"}, "HCT116": {"test_system": "HCT116", "test": "xenograft growth, HCT116", "format": "in vivo, mice"}, "[4]": {"test_system": "DoHH-2 B-cell lymphoma xenografts", "test": "xenograft growth, DoHH-2", "format": "in vivo, mice"}, "[5]": {"test_system": "SW620 colon carcinoma cells", "test": "selection of SW620 cells in 1 μM AZD1152 HQPA", "format": "cell-based, human", "details": "after 5 passages", "description": "All cells were maintained at 37° C. in 5% CO2. […] Less than 0.01% of cells survived this treatment after 5 passages (data not shown). […] In the drug-resistant SW620 derivative (hereafter referred to as SW620^ABCB1/3), ABCB1, which encodes MDR1, was the most highly overexpressed gene on the array, and was identified by two distinct probe sets (FIG. 1A, inset). […] Among the gene set that encodes known small molecule transporters, ABCB1 and ABCB4 are the only two that show highly differential expression (FIG. 1A). The apparent co-upregulation of ABCB1 and ABCB4 was curious given that these genes lie juxtaposed within a common genomic locus on the long arm of chromosome 7 (7q21.1)."}, "SW620 cells": {"test_system": "SW620 cells", "test": "histone H3 phosphorylation immunoblot, SW620", "format": "cell-based, human", "description": "as §2"}, "SW620^ABCB1/3 cells [6]": {"test_system": "SW620^ABCB1/3 cells", "test": "intracellular drug concentration by LC-MS", "format": "in vitro ADME, human", "details": "1 μM for 4 hours", "description": "SW620 and SW620^ABCB1/3 cells were washed and allowed to grow in drug-free medium overnight. […] Cytosolic drug accumulation was determined by LC-MS analysis. Briefly, cells were rinsed once with PBS and extracted in cell lysis buffer. The medium, PBS wash, and cell lysate were treated with 2 volumes of acidified MeOH. Crude whole-cell lysates were then clarified by centrifugation at 15000 g for 15 minutes at 4° C. yielding an insoluble cell pellet and cytosol. The insoluble cell pellet was diluted 1:10 with 50% acetonitrile and centrifuged at 11,000 g for 5 minutes."}, "SW620 tumors": {"test_system": "SW620 tumors", "test": "intratumor pharmacokinetics, SW620 xenografts", "format": "in vivo, mice", "details": "single i.p. 100 mg kg^−1", "description": "(§3) C.B.-17 scid-bg (scid-bg) or C.B.-17 scid (scid) mice were obtained from Charles River Laboratories (Wilmington, Mass., USA) at 5-6 weeks of age and used for studies when greater than 8 weeks of age and/or about 20 grams in size. All animal studies were conducted in a specific pathogen-free environment in accordance with the Internal Institutional Animal Care and Use Committee (IACUC), accredited by the American Association of Laboratory Animal Care under conditions that meet or exceed the standards set by the United States Department of Agriculture Animal Welfare Act, Public Health Service policy on humane care and use of animals and the NIH guide on laboratory animal welfare. Overt signs of dehydration, lack of grooming, lethargy, greater than 15% weight loss as well as tumor volume greater then 20% body weight were used to determine tumor end point. SW620 cell lines were obtained from the ATCC (Manassas, Va.) and cultured according to their recommendations without antibiotics and routinely tested for Mycoplasma and confirmed to be microbe-free by infectious microbe PCR amplification test (IMPACT; Missouri Research Animal Diagnostic Laboratory, Columbia, Mo.) prior to in vivo inoculation. […] Two bisecting diameters were measured with calipers and tumor volumes were estimated from the formula: (length×width^2)/2. […]"}, "SW620^ABCB1/3 tumors": {"test_system": "SW620^ABCB1/3 tumors", "test": "intratumor pharmacokinetics, SW620^ABCB1/3 xenografts", "format": "in vivo, mice", "description": "as §3"}, "SW620 xenografts": {"test_system": "SW620 xenografts", "test": "tumor histone H3 phosphorylation, SW620 xenografts", "format": "in vivo, mice", "description": "as §2, with “Nebr.). C.B.-17 scid-bg (scid-bg) or C.B.-17 scid (scid) mice were obtained from Charles River Laboratories (Wilmington, Mass., USA) at 5-6 weeks of age and used for studies when greater than 8 weeks of age and/or about 20 grams in size. […] Two bisecting diameters were measured with calipers and tumor volumes were estimated from the formula: (length×width^2)/2. […]” for “Nebr.).”"}, "SW620^ABCB1/3 xenografts": {"test_system": "SW620^ABCB1/3 xenografts", "test": "tumor histone H3 phosphorylation, SW620^ABCB1/3 xenografts", "format": "in vivo, mice", "description": "as §2, with “Nebr.). C.B.-17 scid-bg (scid-bg) or C.B.-17 scid (scid) mice were obtained from Charles River Laboratories (Wilmington, Mass., USA) at 5-6 weeks of age and used for studies when greater than 8 weeks of age and/or about 20 grams in size. […] Two bisecting diameters were measured with calipers and tumor volumes were estimated from the formula: (length×width^2)/2. […]” for “Nebr.).”"}, "[7]": {"test_system": "panel of 50 other kinases", "details": "cited from earlier work"}}, "data": [{"smiles": "O=C(O)c1ccc(Nc2ncc3c(n2)-c2ccc(Cl)cc2C(c2c(F)cccc2F)=NC3)cc1", "note": "[MLN8054, 4-{[9-choloro-7-(2,6-difluorophenyl)-5H-pyrimido[5,4-D][2]benzazepin-2-yl]amino}-benzoic acid]", "values": [{"measurement": "activity profile in the cell line panel", "setting": "cell line panel; sensitive vs ABCB1-overexpressing lines", "result": "No apparent loss in potency"}]}, {"smiles": "C/C=C/C[C@@H](C)C(=O)[C@H]1C(=O)N[C@@H](C(C)C)C(=O)N(C)CC(=O)N(C)[C@@H](CC(C)C)C(=O)N[C@@H](C(C)C)C(=O)N(C)[C@@H](CC(C)C)C(=O)N[C@@H](C)C(=O)N[C@H](C)C(=O)N(C)[C@@H](CC(C)C)C(=O)N(C)[C@@H](CC(C)C)C(=O)N(C)[C@@H](C(C)C)C(=O)N1C", "note": "[PSC-833]", "values": [{"measurement": "reversal of resistance to AZD1152 HQPA", "setting": "SW620^ABCB1/3 cells [1]; 1 μM PSC-833 for 2 hours prior to AZD1152 HQPA", "result": "effective in reversing the resistance"}]}, {"smiles": "CCN(CCCOc1ccc2c(Nc3cc(CC(=O)Nc4cccc(F)c4)n[nH]3)ncnc2c1)CCOP(=O)(O)O", "note": "[AZD1152, 2-[[3-({4-[(5-{2-[(3-Fluorophenyl)amino]-2-oxoethyl}-1H-pyrazol-3-yl)amino]-quinazolin-7-yl}oxy)propyl](ethyl)amino)ethyl dihydrogen phosphate]", "values": [{"measurement": "conversion of prodrug to active drug", "setting": "[2]", "result": "rapidly converted to the active drug"}, {"measurement": "reversibility of myelosuppression", "setting": "bone marrow; following cessation of AZD1152 treatment", "result": "fully reversible"}, {"measurement": "myelosuppression", "setting": "bone marrow; secondary to inhibition of proliferation of the bone marrow", "result": "transient myelosuppression"}]}, {"smiles": "CC(=O)O[C@H]1C(=O)[C@@]2(C)[C@H]([C@H](OC(=O)c3ccccc3)[C@]3(O)C[C@H](OC(=O)[C@H](O)[C@@H](NC(=O)c4ccccc4)c4ccccc4)C(C)=C1C3(C)C)[C@]1(OC(C)=O)CO[C@@H]1C[C@@H]2O", "note": "[paclitaxel]", "values": [{"measurement": "relative sensitivity", "setting": "SW620^ABCB1/3", "result": "relatively insensitive"}, {"measurement": "relative sensitivity", "setting": "HCT-15", "result": "relatively insensitive"}, {"measurement": "relative sensitivity", "setting": "AsPC1", "result": "not AsPC1 were relatively insensitive"}]}, {"smiles": "Cc1cc(Nc2cc(N3CCN(C)CC3)nc(Sc3ccc(NC(=O)C4CC4)cc3)n2)[nH]n1", "note": "[VX-680, cyclopropane carboxylic acid {4-[4-(4-methyl-piperazin-1-yl)-6-(5-methyl-2H-pyrazol-3-ylamino)-pyrimidin-2-ylsulphanyl]-phenyl}-amide]", "values": [{"measurement": "xenograft growth under treatment", "setting": "[3]", "result": "unabated"}, {"measurement": "tumor growth inhibition", "setting": "HCT116", "result": "significant tumor growth inhibition"}, {"measurement": "tumor growth inhibition", "setting": "[4]", "result": "significant tumor growth inhibition"}]}, {"smiles": "CCN(CCO)CCCOc1ccc2c(Nc3cc(CC(=O)Nc4cccc(F)c4)[nH]n3)ncnc2c1", "note": "[AZD1152 HQPA]", "values": [{"measurement": "cells that survived treatment", "setting": "[5]", "result": "Less than 0.01%"}, {"measurement": "intrinsic potency (histone H3 phosphorylation)", "setting": "SW620 cells", "result": 0.02, "unit": "µM"}, {"measurement": "intrinsic potency (histone H3 phosphorylation)", "setting": "SW620^ABCB1/3 cells [1]; SW620^ABCB1/3", "result": 2, "unit": "µM"}, {"measurement": "more drug required to inhibit histone H3 phosphorylation than the parental line", "setting": "SW620^ABCB1/3 cells [1]; SW620^ABCB1/3 vs parental SW620, 90 minutes", "result": "approximately 100 fold"}, {"measurement": "drug in the cytosol compared to parental SW620 cells", "setting": "SW620^ABCB1/3 cells [6]", "result": "Significantly less drug"}, {"measurement": "period of tumor concentration above threshold", "setting": "SW620 tumors", "result": "at least 24 hours"}, {"measurement": "period of tumor concentration above threshold", "setting": "SW620^ABCB1/3 tumors; SW620^ABCB1/3 tumors, single i.p. 100 mg kg^−1", "result": "~6", "unit": "h"}, {"measurement": "overall tumor AUC compared to the parental cohort", "setting": "SW620^ABCB1/3 tumors; single IP administration, 24-hour period post-dose", "result": "reduction in the overall tumor AUC"}, {"measurement": "minimum threshold intratumor concentration to inhibit histone H3 phosphorylation", "setting": "SW620 xenografts; SW620 xenografts, potency x fold loss in 50% (v/v) mouse plasma", "result": 0.1, "unit": "µM"}, {"measurement": "inhibition of Aurora B (histone H3 phosphorylation) in tumors", "setting": "SW620 xenografts; parental SW620 xenografts, single dose 100 mg kg^−1 i.p.", "result": "Sustained inhibition"}, {"measurement": "inhibition of histone H3 phosphorylation in tumors", "setting": "SW620^ABCB1/3 xenografts; SW620^ABCB1/3 tumors, single dose 100 mg kg^−1 i.p.", "result": "transient inhibition"}, {"measurement": "minimum threshold intratumor concentration to inhibit histone H3 phosphorylation", "setting": "SW620^ABCB1/3 xenografts; SW620^ABCB1/3 xenografts, potency x fold loss in 50% (v/v) mouse plasma", "result": 10, "unit": "µM"}, {"measurement": "IC50", "setting": "cell line panel; Homo sapiens, most (sensitive) cell lines of the panel", "result": "0.004 to 0.015", "unit": "µM"}, {"measurement": "IC50", "setting": "SW620^ABCB1/3; Homo sapiens", "result": 2, "unit": "µM"}, {"measurement": "IC50", "setting": "HCT-15; Homo sapiens", "result": 1.4, "unit": "µM"}, {"measurement": "activity against a panel of 50 other kinases", "setting": "[7]", "result": "inactive"}]}]}
